The source of these data is patent US6548638B2, “Peptoid and nonpeptoid containing α-keto oxadiazoles as serine protease inhibitors” (Cortech, Inc., priority 1998, dated 2003).

The structures appear in SMILES notation. pKi: −log10 of the molar value.

In test [1] the target is T1, HNE (elastase derived from human sputum, HSE) (Homo sapiens, UniProt P08246).
T1 construct: The elastase used in the protocol was derived from human sputum (HSE); purchased Elastin Product Co., Inc, Missouri, USA SE-563; host or cells: human sputum (natural source)
T1 sequence (P08246 30-267): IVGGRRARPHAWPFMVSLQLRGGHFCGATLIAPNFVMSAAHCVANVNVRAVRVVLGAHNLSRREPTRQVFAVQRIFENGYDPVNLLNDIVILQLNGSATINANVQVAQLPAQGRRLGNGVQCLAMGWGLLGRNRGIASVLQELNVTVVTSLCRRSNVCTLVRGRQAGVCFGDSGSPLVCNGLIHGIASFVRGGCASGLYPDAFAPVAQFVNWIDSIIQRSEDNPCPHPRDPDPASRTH
The test can be described thus: In vitro inhibition of elastase (rate assay, N-methoxysuccinyl-Ala-Ala-Pro-Val-p-nitroaniline substrate). Type of test: biochemical. The conditions noted are these: inhibition activity against HNE; IC50 by log-logit method converted to K1 by Dixson plot; pH 8.0, 37° C.

Test [2] has as its system elastase activity in whole blood. The test is described as follows: Ex vivo inhibition of elastase (whole blood stimulated with opsonized zymosan, after oral administration). The format is in vivo. The conditions noted are these: blood sampled 60 minutes after administration, 24 hour fasted animal; for Percent Inhibition at Indicated Dosage, 3 mg/kg: 3 mg/kg oral; for Percent Inhibition at Indicated Dosage, 10 mg/kg: 10 mg/kg oral; for Percent Inhibition at Indicated Dosage, 30 mg/kg: 30 mg/kg oral. The protocol:
Sixty (60) minutes after the oral administration of an inhibitor with an appropriate vehicle, a blood sample (0.9 ml) is collected through the abdominal aorta by a syringe containing 0.1 ml of a 3.8% sodium citrate solution.
The blood sample is processed as follows: 60 μl of (final 0.1-1 mg/ml) a suspended solution of opsonized zymosan in Hank's buffer is added to the preincubated whole blood (540 μl) for 5 minutes at 37° C., and the resulting mixture is incubated for 30 minutes at the same temperature. The reaction is terminated by immersing the test tube into ice water. The reaction mixture is then centrifuged at 3,000 rpm for 10 minutes at 4° C. Twenty (20) μl of each of the resulting supernatant (the Sample) is measured for elastase activity.
The mixture consisting of the following components is incubated for 24 hours at 37° C., and then optical density is measured at 405 nm:
A test sample mixed with 1-methyl-2-pyrrolidone instead of the substrate is regarded as Substrate (−). A test sample mixed with saline instead of the Sample is regarded as Blank. The remaining elastase activity in the Sample is calculated according to the following: […]
optical density of Substrate (+)−(optical density of Substrate (−)+optical density of Blank)
as a total production of p-nitroaniline over 24 hours based on a standard curve for the amount of p-nitroaniline.
An average activity is calculated based on the test sample of 5-6 animals. An agent at 3, 10 or 30 mg/kg is orally given by a forced administration to a 24 hour fasted animal at 60 minutes before the blood sampling. Optical density is measured by SPECTRA MAX 250 (Molecular Devices).

Turning to `CC(C)C(NC(=O)Cn1c(-c2ccccc2)ncc(N)c1=O)C(=O)c1nnc(C(C)(C)c2ccc3c(c2)OCO3)o1` (racemic) [Example 8, 2-[5-Amino-6-oxo-2-phenyl-1,6-dihydro-1-pyrimidinyl]-N-[1-(2-[5-(α,α-dimethyl-3,4methylenedioxybenzyl)-1,3,4-oxadiazolyl]carbonyl)-2-(R,S)-methylpropyl]acetamide], the pKi in test [1] was 8.97.

Compound `CC(C)C(NC(=O)Cn1c(-c2ccccc2)nccc1=O)C(=O)c1nnc(C(C)(C)c2ccc3c(c2)OCO3)o1` (racemic) [Example 9, 2-[6-Oxo-2-phenyl-1,6-dihydro-1-pyrimidinyl]-N-[1-(2-[5-(α,α-dimethyl-3,4-methylenedioxybenzyl)-1,3,4-oxadiazolyl]carbonyl)-2-(R,S)-methylpropyl]acetamide] gave a pKi in test [1] of 9.47. On the same count and under the same terms, for `CC(C)C(NC(=O)Cn1c(-c2ccc(F)cc2)nccc1=O)C(=O)c1nnc(C(C)(C)c2ccc3c(c2)OCO3)o1` (racemic) [Example 10, 2-[6-Oxo-2-(4-fluorophenyl)-1,6-dihydro-1-pyrimidinyl]-N-[1-(2-[5-(α,α-dimethyl-3,4-methylenedioxybenzyl)-1,3,4-oxadiazolyl]carbonyl)-2-(R,S)-methylpropyl]acetamide] the value was 8.82; for `CC(C)C(NC(=O)Cn1c(-c2ccc(F)cc2)nccc1=O)C(=O)c1nnc(C(C)(C)c2ccccc2)o1` (racemic) [Example 11, 2-[6-Oxo-2-(4-fluorophenyl)-1,6-dihydro-1-pyrimidinyl]-N-[1-(2-[5-(α,α-dimethylbenzyl)-1,3,4-oxadiazolyl]carbonyl)-2-(R,S)-methylpropyl]acetamide], 8.27; for `CC(C)C(NC(=O)Cn1c(-c2ccccc2)nccc1=O)C(=O)c1nnc(C(C)(C)c2ccccc2)o1` (racemic) [Example 12, 2-[6-Oxo-2-phenyl-1,6-dihydro-1-pyrimidinyl]-N-[1-(2-[5-(α,α-dimethylbenzyl)-1,3,4-oxadiazolyl]carbonyl)-2-(R,S)-methylpropyl]acetamide], 8.74. On the same count and under the same terms, next, `COC(=O)NC(C(=O)N1CCCC1C(=O)NC(C(=O)c1nnc(C(C)(C)C)o1)C(C)C)C(C)C` [Example 1, Methyloxycarbonyl-L-valyl-N-[1-(2-[5-(tert-butyl)oxadiazolyl]carbonyl)-2-(S)-methylpropyl]-L-prolinamide]: 8.52. `COC(=O)NC(C(=O)N1CCCC1C(=O)NC(C(=O)c1nnc(C(C)(C)c2ccccc2)o1)C(C)C)C(C)C` [Example 2, Methyloxycarbonyl-L-valyl-N-[1-(2-[5-(α,α-dimethylbenzyl)oxadiazolyl]carbonyl)-2-(S)-methylpropyl]-L-prolinamide] gave a pKi in test [1] of 8.88. Further, in test [2], the “Percent Inhibition at Indicated Dosage, 3 mg/kg” value is reported as 7%; the “Percent Inhibition at Indicated Dosage, 10 mg/kg” value turned out to be 9%; the “Percent Inhibition at Indicated Dosage, 30 mg/kg” value is 62%.

With `COC(=O)NC(C(=O)N1CCCC1C(=O)NC(C(=O)c1nnc(C(C)(C)c2ccc3c(c2)OCO3)o1)C(C)C)C(C)C` [Example 3, Methyloxycarbonyl-L-valyl-N-[1-(2-[5-(α,α-dimethyl-3,4-methylenedioxybenzyl)-1,3,4-oxadiazolyl]carbonyl)-2-(S)-methylpropyl]-L-prolinamide], in test [1], the negative-log Ki (pKi) is 9.62. In test [2], the “Percent Inhibition at Indicated Dosage, 3 mg/kg” value is 44%; the “Percent Inhibition at Indicated Dosage, 10 mg/kg” value was 69%; the “Percent Inhibition at Indicated Dosage, 30 mg/kg” value is reported as 99%.
